Like-named read-outs stand apart in the source and are kept apart here.
Columns and labels:
[1] = system: phosphorylated IRS1 (pIRS1); assay: Imaging of phosphorylated IRS1 in IR condensates in HepG2 cells; assay type: cell-based, human
Experimental: HepG2 cells, human liver spheroids, human primary adipocytes and human tissue liver sections were fixed in 4% PFA (VWR, BT140770-10X10) in PBS (Life Technologies, AM9625) for 10 minutes at room temperature. Cells were washed three times for 5 minutes in PBS, permeabilized with 0.5% TritonX100 (Sigma Aldrich, X100) in PBS, washed three times for 5 minutes in PBS, and then blocked with 4% IgG-free BSA (VWR, 102643-516) for 15-60 minutes at room temperature. Afterwards, the cells were incubated with 1:500 or 1:1000 primary antibody (specific antibodies listed below) in 4% IgG-free BSA in PBS at 4° C. overnight. […]
To quantify pIRS1 fluorescent signal in IR puncta/condensates manually, Airyscan images were opened on Fiji as composite images. A circle or an oval was drawn around IR puncta using the oval selection tool and the average fluorescence intensity of pIRS1 in the circle or oval (=in the puncta/condensates) was determined using the measure tool on Fiji.
To quantify pIRS1 fluorescent signal in IR puncta/condensates computationally using Fiji, 3D object counter tool was used. […] 3D object counter tool then determined the intensity pIRS1 channel in the identified IR puncta. pIRS1 signal intensity was then background subtracted by a threshold determined by averaging the background intensity in a rectangular region outside of the cells.

[2] = system: HepG2 cells; assay: Glucose production in HepG2 cells; assay type: cell-based, human
Experimental: Insulin sensitive and resistant cells were cultured in EMEM for 30 minutes and then cells were treated with 0, 0.1, 1 and 10 nM insulin in glucose production media, containing DMEM (Thermo Fisher Scientific, A1443001), 15 mM HEPES (Gibco, 15630-080), 1 mM pyruvate (Sigma Aldrich, P5280), 20 mM lactate (Sigma Aldrich, L7022-5G) for 4-5 hours. Media was removed and glucose production was measured using Amplex™ Red Glucose/Glucose oxidase assay kit (Thermo Fisher Scientific, A22189) according to the manufacturer's specifications.
To wash out insulin, cells were washed with EMEM (ATCC 30-2003) seven times, including: three quick washes, three 5-minute washes and a long 20 minute-wash in EMEM at 37° C. Cells were washed with glucose-free RPMI (Gibco, 11879-020) then cultured in glucose-free RPMI for 3 hours. […] Cells were then processed for metabolite isolation (see below).
Metabolite isolation from HepG2 cells: cells were washed in ice-cold PBS (Life Technologies, AM9625), 500 μl of cold 80% MeOH (shared by the Metabolite Profiling Core Facility) was added per well of a 6-well plate and the plate was placed at −80° C. for at least 15 minutes. Following the −80 incubation, the plate was scraped on dry ice and the solution was transferred to a 1.5 ml tube and then vortexed for 5 minutes. […]

[3] = cited from earlier work

## insulin: insulin (Sigma Aldrich, I9278-5ML) used for acute stimulation and chronic physiological or pathological exposure
[1]; insulin-sensitive HepG2 cells, 3 nM insulin 5 min (FIG. 17F)
  intensity of pIRS1 at IR condensates: increased
[2]; cells exposed to pathologic levels (3 nM) of insulin for two days
  glucose production after insulin stimulation: unchanged
[2]; insulin-sensitive HepG2 cells, acute insulin stimulation (FIGS. 22G-22H)
  glucose production: decreased glucose production

## CN(C)C(=N)N=C(N)N [metformin, reference compound]
[1]; insulin-resistant cells + metformin, 3 nM insulin 5 min (FIG. 18C)
  levels of phosphorylated IRS1 in IR-containing condensates: partially rescued
[3]; T2D patients (Example 1)
  concentration of metformin in the plasma of T2D patients: ~12.5 µM
[3]; T2D patients (Example 2, refs 58-60)
  concentration of metformin in the plasma of T2D patients: ~12.5 µM

— patent publication US20250186379A1, “METHODS AND AGENTS FOR DECREASING INSULIN RESISTANCE” (Whitehead Institute for Biomedical Research, priority 2021, published 2025)
